Earlier results in patent US11872302B2, “Product for dyeing keratinous material, containing aminosilicone, a chromophoric compound and ester oil” (Henkel AG & Co. KGaA, priority 2019, dated 2024).

Settings: 25° C.

solubility in water | solubility in water, in words | SMILES
– | highly soluble in water | O=C(O)C1=NN(c2ccc(S(=O)(=O)O)cc2)C(=O)C1N=Nc1ccc(S(=O)(=O)O)cc1 (stereo not shown) [Acid Yellow 23, 4,5-dihydro-5-oxo-1-(4-sulfophenyl)-4-((4-sulfophenyl)azo)-1H-pyrazole-3-carboxylic acid]
above 40 g/L | – | O=[N+]([O-])c1cc([N+](=O)[O-])c2ccc(S(=O)(=O)O)cc2c1O [Acid Yellow 9, 8-hydroxy-5,7-dinitro-2-naphthalenesulfonic acid]
more than 20 wt. % | – | CCN(Cc1cccc(S(=O)(=O)O)c1)c1ccc(C(=C2C=CC(=[N+](CC)Cc3cccc(S(=O)(=O)O)c3)C=C2)c2ccccc2S(=O)(=O)[O-])cc1 [Acid Blue 9]

SMILES | solubility in water | solubility in water, in words
O=S(=O)(O)c1ccc(N=Nc2c(O)ccc3ccccc23)cc1 [Acid Orange 7, 4-[(2-hydroxy-1-naphthyl)azo]benzene sulphonate] | more than 7 g/L | –
